Source: PubChem BioAssay AID248 (DTP/NCI, 2004)
“And” between values parts separate entries of the source, which are not always exact repeats. Equal values may be shown once. Toxic doses and inconclusive results are not listed. Rule as the data show it: active = T/C of 150% or more; inactive = T/C below 125%.

Tested on: L1210 leukemia ip in BDF1 mice, survival T/C
Assay: NCI In Vivo Anticancer Drug Screen. Data for tumor model L1210 Leukemia (intraperitoneal) in B6D2F1 (BDF1) mice
Conditions: endpoint: mean survival time, higher = longer survival
In short: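 Mice bearing the transplanted tumor received compound or vehicle. Survival of the treated group was divided by that of the vehicle-treated control group to give the ratio.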

[1] = dose: 100.0 mg/kg/injection, schedule: Q04DX002 (ip), vehicle: Klucel (hydroxypropylcellulose) (HPC)
[2] = dose: 200.0 mg/kg/injection, schedule: Q04DX002 (ip), vehicle: Klucel (hydroxypropylcellulose) (HPC)
[3] = dose: 400.0 mg/kg/injection, schedule: Q04DX002 (ip), vehicle: Klucel (hydroxypropylcellulose) (HPC)
[4] = dose: 100.0 mg/kg/injection, schedule: Q01DX009 (ip), vehicle: Klucel (hydroxypropylcellulose) (HPC)
[5] = dose: 200.0 mg/kg/injection, schedule: Q01DX009 (ip), vehicle: Klucel (hydroxypropylcellulose) (HPC)
[6] = dose: 400.0 mg/kg/injection, schedule: Q01DX009 (ip), vehicle: Klucel (hydroxypropylcellulose) (HPC)
[7] = dose: 100.0 mg/kg/injection, schedule: Q01DX009 (ip), vehicle: saline with Tween-80
[8] = dose: 200.0 mg/kg/injection, schedule: Q01DX009 (ip), vehicle: saline with Tween-80
[9] = dose: 400.0 mg/kg/injection, schedule: Q01DX009 (ip), vehicle: saline with Tween-80
[10] = dose: 100.0 mg/kg/injection, schedule: Q01DX001 (ip), vehicle: saline
[11] = dose: 200.0 mg/kg/injection, schedule: Q01DX001 (ip), vehicle: saline
[12] = dose: 400.0 mg/kg/injection, schedule: Q01DX001 (ip), vehicle: saline

Measured: T/C

COc1ccc(C(=O)Nc2ccc(F)cc2)cc1
inactive: dose: 100.0 mg/kg/injection, schedule: Q01DX009 (ip), vehicle: carboxymethylcellulose (CMC) 100 % of control and 105 % of control | [1] 115 % of control | dose: 100.0 mg/kg/injection, schedule: Q04DX002 (ip), vehicle: carboxymethylcellulose (CMC) 103 % of control | dose: 100.0 mg/kg/injection, schedule: Q04DX003 (ip), vehicle: carboxymethylcellulose (CMC) 101 % of control | dose: 200.0 mg/kg/injection, schedule: Q01DX009 (ip), vehicle: carboxymethylcellulose (CMC) 94 % of control and 89 % of control | [2] 102 % of control | dose: 200.0 mg/kg/injection, schedule: Q04DX002 (ip), vehicle: carboxymethylcellulose (CMC) 93 % of control and 95 % of control | dose: 200.0 mg/kg/injection, schedule: Q04DX003 (ip), vehicle: carboxymethylcellulose (CMC) 106 % of control | dose: 400.0 mg/kg/injection, schedule: Q01DX009 (ip), vehicle: carboxymethylcellulose (CMC) 87 % of control | [3] 108 % of control | dose: 400.0 mg/kg/injection, schedule: Q04DX002 (ip), vehicle: carboxymethylcellulose (CMC) 93 % of control and 100 % of control | dose: 400.0 mg/kg/injection, schedule: Q04DX003 (ip), vehicle: carboxymethylcellulose (CMC) 102 % of control

Cc1ccc(N=Cc2cc(Br)cc(Br)c2O)cc1.Cc1ccc(N=Cc2cc(Br)cc(Br)c2O)cc1.[Co]
inactive: dose: 25.0 mg/kg/injection, schedule: Q04DX003 (ip), vehicle: saline with Tween-80 104 % of control | dose: 50.0 mg/kg/injection, schedule: Q04DX003 (ip), vehicle: saline with Tween-80 100 % of control | dose: 100.0 mg/kg/injection, schedule: Q04DX003 (ip), vehicle: saline with Tween-80 100 % of control

N#Cc1c(N)sc(N)c1C#N
inactive: [4] 96 % of control | dose: 100.0 mg/kg/injection, schedule: Q04DX003 (ip), vehicle: Klucel (hydroxypropylcellulose) (HPC) 100 % of control | [5] 89 % of control | dose: 200.0 mg/kg/injection, schedule: Q04DX003 (ip), vehicle: Klucel (hydroxypropylcellulose) (HPC) 98 % of control | [6] 96 % of control | dose: 400.0 mg/kg/injection, schedule: Q04DX003 (ip), vehicle: Klucel (hydroxypropylcellulose) (HPC) 98 % of control

COc1ccc(Cl)cc1NC(=O)Nc1cc(C)ccc1N=Nc1ccc(C)cc1
inactive: dose: 100.0 mg/kg/injection, schedule: Q01DX001 (ip), vehicle: saline with Tween-80 96 % of control and 91 % of control | [7] 88 % of control | dose: 100.0 mg/kg/injection, schedule: Q04DX002 (ip), vehicle: saline with Tween-80 87 % of control | dose: 200.0 mg/kg/injection, schedule: Q01DX001 (ip), vehicle: saline with Tween-80 96 % of control | [8] 94 % of control and 91 % of control | dose: 200.0 mg/kg/injection, schedule: Q04DX002 (ip), vehicle: saline with Tween-80 92 % of control | dose: 400.0 mg/kg/injection, schedule: Q01DX001 (ip), vehicle: saline with Tween-80 96 % of control and 88 % of control | [9] 94 % of control | dose: 400.0 mg/kg/injection, schedule: Q04DX002 (ip), vehicle: saline with Tween-80 92 % of control

CC(CCCO)C1CCC2C3CCC4CC5(CCC4(C)C3CCC12C)OCCO5 (stereo not given)
inactive: dose: 100.0 mg/kg/injection, schedule: Q01DX009 (sc), vehicle: steriod suspending solution 104 % of control | dose: 200.0 mg/kg/injection, schedule: Q01DX009 (sc), vehicle: steriod suspending solution 92 % of control | dose: 400.0 mg/kg/injection, schedule: Q01DX009 (sc), vehicle: steriod suspending solution 94 % of control

CCOc1ccccc1C(N)=O
inactive: dose: 100.0 mg/kg/injection, schedule: Q01DX009 (ip), vehicle: saline 96 % of control | dose: 100.0 mg/kg/injection, schedule: Q04DX003 (ip), vehicle: other 96 % of control | dose: 200.0 mg/kg/injection, schedule: Q01DX009 (ip), vehicle: saline 107 % of control | dose: 200.0 mg/kg/injection, schedule: Q04DX003 (ip), vehicle: other 104 % of control | dose: 400.0 mg/kg/injection, schedule: Q01DX009 (ip), vehicle: saline 102 % of control | dose: 400.0 mg/kg/injection, schedule: Q04DX003 (ip), vehicle: other 105 % of control

CC(C)C(=O)NCc1ccccc1
inactive: [1] 104 % of control | [2] 101 % of control | [3] 90 % of control

Cc1cncc2c(=O)n(-c3ccccc3)n(C)c12
inactive: dose: 50.0 mg/kg/injection, schedule: Q01DX009 (ip), vehicle: Klucel (hydroxypropylcellulose) (HPC) 93 % of control | [4] 96 % of control

Nc1ccc(F)c(Cl)c1
inactive: dose: 100.0 mg/kg/injection, schedule: Q04DX002 (ip), vehicle: saline 121 % of control | dose: 200.0 mg/kg/injection, schedule: Q04DX002 (ip), vehicle: saline 98 % of control | dose: 400.0 mg/kg/injection, schedule: Q04DX002 (ip), vehicle: saline 105 % of control

O=C1C(=O)c2ccccc2C(O)=C1C(C1=C(O)c2ccccc2C(=O)C1=O)c1ccc(Cl)c(Cl)c1
inactive: dose: 75.0 mg/kg/injection, schedule: Q01DX001 (ip), vehicle: carboxymethylcellulose (CMC) 94 % of control

COc1ccc(O)c(CC(C)C)c1
inactive: dose: 100.0 mg/kg/injection, schedule: Q04DX003 (ip), vehicle: acetone 96 % of control | dose: 200.0 mg/kg/injection, schedule: Q04DX003 (ip), vehicle: acetone 102 % of control | dose: 400.0 mg/kg/injection, schedule: Q04DX003 (ip), vehicle: acetone 93 % of control

COc1ccc(OC)c(/C=N/NC(=O)c2ccccc2Cl)c1
inactive: dose: 50.0 mg/kg/injection, schedule: Q01DX009 (ip), vehicle: saline with Tween-80 91 % of control | [7] 97 % of control | [8] 94 % of control

O=C(Nc1nc2ccccc2s1)C(F)(F)F
inactive: [10] 102 % of control | [11] 93 % of control | [12] 102 % of control

C(=N\Nc1nc2ccccc2s1)/c1ccc(/C=N/Nc2nc3ccccc3s2)cc1
inactive: [4] 96 % of control | [5] 96 % of control | [6] 104 % of control

Cn1cc(C2=CC(=O)C=CC2=O)c2ccccc21
inactive: dose: 5.0 mg/kg/injection, schedule: Q01DX001 (ip), vehicle: saline 102 % of control | dose: 10.0 mg/kg/injection, schedule: Q01DX001 (ip), vehicle: saline 111 % of control | dose: 20.0 mg/kg/injection, schedule: Q01DX001 (ip), vehicle: saline 104 % of control | dose: 40.0 mg/kg/injection, schedule: Q01DX001 (ip), vehicle: saline 98 % of control

c1ccc(P2CCc3[nH]c4ccccc4c3C2)cc1 (stereo not given)
inactive: [7] 97 % of control | dose: 100.0 mg/kg/injection, schedule: Q04DX003 (ip), vehicle: saline 100 % of control | [8] 110 % of control | dose: 200.0 mg/kg/injection, schedule: Q04DX003 (ip), vehicle: saline 96 % of control | [9] 100 % of control | dose: 400.0 mg/kg/injection, schedule: Q04DX003 (ip), vehicle: saline 113 % of control

CC(C)(C)OC(=O)CC(O)c1ccccc1 (stereo not given)
inactive: dose: 50.0 mg/kg/injection, schedule: Q01DX001 (ip), vehicle: saline 94 % of control | [10] 102 % of control | [11] 105 % of control | [12] 102 % of control

N#CSCc1ccc(Cl)cc1
inactive: dose: 25.0 mg/kg/injection, schedule: Q01DX009 (ip), vehicle: saline with Tween-80 92 % of control
